# Patent US9113629B2, “4-amino-6-(4-substituted-phenyl)-picolinates and 6-amino-2-(4-substituted-phenyl)-pyrimidine-4-carboxylates and their use as herbicides” (DOW AGROSCIENCES LLC, priority 2013, dated 2015)
# Where two headings read alike, the source gives them in different places.
# Key:
# [1] = system: Key Grass and Sedge Weeds as well as Grass Crops; assay: Post-emergent Test II herbicidal activity (Table 6); assay type: in vivo; conditions: post-emergence, 336 h; for pest or weed control at 70 g/ha: application rate 70 g ai/ha; for pest or weed control at 140 g/ha: application rate 140 g ai/ha
# Method in brief: (§1)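 Spray rates: a highest rate plus ½×, ¼×, ⅛×, 1/16×, all delivered at 187 L/ha to plants at the first–second true leaf stage. Readout is a visual percent injury score at 14 d, where 100 means complete kill.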
# [2] = system: Key Broadleaf Weed and Crop Species; assay: Post-emergent Test II herbicidal activity (Table 5); assay type: in vivo; conditions: post-emergence, 336 h, post-emergent, 14 days after application; for pest or weed control at 70 g/ha: application rate 70 g ai/ha; for pest or weed control at 140 g/ha: application rate 140 g ai/ha
# Method in brief: as §1
# [3] = CYPES: yellow nutsedge (Cyperus esculentus), read-out: Visual Growth Reduction (%) 14 Days After Application, CYPES
# [4] = DIGSA: crabgrass (Digitaria sanguinalis), read-out: Visual Growth Reduction (%) 14 Days After Application, DIGSA
# [5] = ECHCG: barnyardgrass (Echinochloa crus-galli), read-out: Visual Growth Reduction (%) 14 Days After Application, ECHCG
# [6] = ORYSA: rice (Oryza sativa), read-out: Visual Growth Reduction (%) 14 Days After Application, ORYSA
# [7] = SETFA: giant foxtail (Setaria faberi), read-out: Visual Growth Reduction (%) 14 Days After Application, SETFA
# [8] = SORVU: grain sorghum (Sorghum vulgare), read-out: Visual Growth Reduction (%) 14 Days After Application, SORVU
# [9] = TRZSS (wheat, Triticum aestivum), read-out: Visual Growth Reduction (%) 14 Days After Application, TRZSS
# [10] = ZEAMX: maize, corn (Zea mays), read-out: Visual Growth Reduction (%) 14 Days After Application, ZEAMX
# [11] = ABUTH: velvetleaf (Abutilon theophrasti), read-out: Visual Growth Reduction (%) 14 Days After Application, ABUTH
# [12] = AMARE: redroot pigweed (Amaranthus retroflexus), read-out: Visual Growth Reduction (%) 14 Days After Application, AMARE
# [13] = BRSNN: oilseed-rape, canola (Brassica napus), read-out: Visual Growth Reduction (%) 14 Days After Application, BRSNN
# [14] = CHEAL: lambsquarters (Chenopodium album), read-out: Visual Growth Reduction (%) 14 Days After Application, CHEAL
# [15] = EPHHL: wild poinsettia (Euphorbia heterophylla), read-out: Visual Growth Reduction (%) 14 Days After Application, EPHHL
# [16] = HELAN: sunflower (Helianthus annuus), read-out: Visual Growth Reduction (%) 14 Days After Application, HELAN
# [17] = VIOTR: wild pansy (Viola tricolor), read-out: Visual Growth Reduction (%) 14 Days After Application, VIOTR
Compound,"pest or weed control at 70 g/ha [1, 3] [%]","pest or weed control at 140 g/ha [1, 3] [%]","pest or weed control at 70 g/ha [1, 4] [%]","pest or weed control at 140 g/ha [1, 4] [%]","pest or weed control at 70 g/ha [1, 5] [%]","pest or weed control at 140 g/ha [1, 5] [%]","pest or weed control at 70 g/ha [1, 6] [%]","pest or weed control at 140 g/ha [1, 6] [%]","pest or weed control at 70 g/ha [1, 7] [%]","pest or weed control at 140 g/ha [1, 7] [%]","pest or weed control at 70 g/ha [1, 8] [%]","pest or weed control at 140 g/ha [1, 8] [%]","pest or weed control at 70 g/ha [1, 9] [%]","pest or weed control at 140 g/ha [1, 9] [%]","pest or weed control at 70 g/ha [1, 10] [%]","pest or weed control at 140 g/ha [1, 10] [%]","pest or weed control at 70 g/ha [2, 11] [%]","pest or weed control at 140 g/ha [2, 11] [%]","pest or weed control at 70 g/ha [2, 12] [%]","pest or weed control at 140 g/ha [2, 12] [%]",other results
COc1c(N)nc(-c2cc(F)c(C(F)F)cc2F)nc1C(=O)O [Compound 203],0 to 29,75 to 84,0 to 29,0 to 29,0 to 29,0 to 29,0 to 29,0 to 29,0 to 29,75 to 84,0 to 29,0 to 29,0 to 29,0 to 29,0 to 29,0 to 29,30 to 44,30 to 44,45 to 59,95 to 100,"pest or weed control at 70 g/ha [2, 13]: 30 to 44%; pest or weed control at 140 g/ha [2, 13]: 45 to 59%; pest or weed control at 70 g/ha [2, 14]: 85 to 94%; pest or weed control at 140 g/ha [2, 14]: 95 to 100%; pest or weed control at 70 g/ha [2, 15]: 95 to 100%; pest or weed control at 140 g/ha [2, 15]: 95 to 100%; pest or weed control at 70 g/ha [2, 16]: 60 to 74%; pest or weed control at 140 g/ha [2, 16]: 75 to 84%; pest or weed control at 70 g/ha [2, 17]: 0 to 29%; pest or weed control at 140 g/ha [2, 17]: 30 to 44%; melting point: 143.7 to 145.5 °C"
COC(=O)c1nc(-c2cc(F)c(C)cc2F)c(F)c(N)c1Cl [Compound 184],0 to 29,0 to 29,0 to 29,0 to 29,45 to 59,60 to 74,0 to 29,0 to 29,0 to 29,0 to 29,0 to 29,30 to 44,0 to 29,0 to 29,0 to 29,0 to 29,95 to 100,95 to 100,85 to 94,95 to 100,"pest or weed control at 70 g/ha [2, 13]: 85 to 94%; pest or weed control at 140 g/ha [2, 13]: 95 to 100%; pest or weed control at 70 g/ha [2, 14]: 85 to 94%; pest or weed control at 140 g/ha [2, 14]: 95 to 100%; pest or weed control at 70 g/ha [2, 15]: 85 to 94%; pest or weed control at 140 g/ha [2, 15]: 95 to 100%; pest or weed control at 70 g/ha [2, 16]: 95 to 100%; pest or weed control at 140 g/ha [2, 16]: 95 to 100%; pest or weed control at 70 g/ha [2, 17]: 0 to 29%; pest or weed control at 140 g/ha [2, 17]: 0 to 29%; melting point: 116.5 to 118.8 °C"
COc1c(N)nc(-c2cc(F)c(C)cc2F)nc1C(=O)O [Compound 201],0 to 29,0 to 29,0 to 29,0 to 29,60 to 74,45 to 59,0 to 29,0 to 29,0 to 29,30 to 44,0 to 29,45 to 59,0 to 29,0 to 29,0 to 29,0 to 29,30 to 44,60 to 74,30 to 44,60 to 74,"pest or weed control at 70 g/ha [2, 13]: 95 to 100%; pest or weed control at 140 g/ha [2, 13]: 95 to 100%; pest or weed control at 70 g/ha [2, 14]: 85 to 94%; pest or weed control at 140 g/ha [2, 14]: 75 to 84%; pest or weed control at 70 g/ha [2, 15]: 45 to 59%; pest or weed control at 140 g/ha [2, 15]: 85 to 94%; pest or weed control at 70 g/ha [2, 16]: 60 to 74%; pest or weed control at 140 g/ha [2, 16]: 75 to 84%; pest or weed control at 70 g/ha [2, 17]: 0 to 29%; pest or weed control at 140 g/ha [2, 17]: 0 to 29%; melting point: 135.9 to 137.7 °C"
